Test results taken from patent US12291502B2, “Topoisomerase II-alpha inhibitors and methods of treating cancer using the same” (The Regents of the University of Colorado, priority 2019, dated 2025).
“Also recorded” adds a separate entry of the source.

Experiments:
SW620 tumor organoids = test: Tumor organoid cytotoxicity / 3D cell viability (CellTox Green); format: cell-based
Method: Tumor organoid cytotoxicity. Fluorescence image-based method: The CellTox™ Green assay (Promega, Madison, WI, USA) was used with 3D tumor organoid to measure spheroid death. 0.1% CellTox™ Green was included in each well at the time of analogs dosing. 10% lysis solution was used as a cell death control. Fluorescence was measured at various time points with 465-510 nm excitation and 520-530 nm emission. Luminescence plate reader method: A 1:1 ratio of CellTiter-Glo™ 3D reagent (Promega) was added to 3D tumor organoid and the plate was shaken at 400 rpm for 30 min before luminescence was read with a PerkinElmer Envision plate reader.
Finally, SW620 tumor organoid cytotoxicity experiments were conducted using the CellTox Green assay, a fluorescence image-based method, to determine whether the inhibition of TCF transcription and effects on EMT are not the result of cytotoxicity. […] All of the analogs tested display IC50 dose response >30 μM and were higher compared to the IC50 values obtained during the downregulation of TCF transcription activity, and the EC50 values obtained for EMT modulation. Thus, the biological effects on TCF-transcription and EMT are not a result of tumor organoid cell death.
(§1) Tumor organoid cytotoxicity. SW620 tumor organoids were grown as previously outlined. CellTox™ Green-Express Cytotoxicity Assay (Promega, WI) solution was prepared per manufacturer's protocol. Briefly, organoids were treated for 72 h with CellTox™ Green Express (0.5×) reagent and various doses of TOP2A inhibitors over a range of 0-to-40 μM. Organoids were then imaged using the Opera Phenix HCS system (PerkinElmer, MA). CellTox™ Green Express was excited at 488 nm and emission was detected at 500-550 nm. Mean intensity of the whole well was utilized for calculating cytotoxicity with Lysis Buffer (Promega, WI, 0.025×) as the 0% viability control and 0.4% DMSO as the 100% viability control. Intensity values were normalized to these controls using GraphPad Prism 7.0 (GraphPad, CA).
as §1, with “CellTox™-Green-Express” for “CellTox™ Green-Express”, “(GraphPad.” for “(GraphPad,”

[1] = system: H2AX S139 phosphorylation (γ-H2AX) in colon cancer cell lines HT29 and SW620; test: γ-H2AX DNA damage assay (immunofluorescence); format: cell-based; settings: 0-40 μM for Neo, 7, BAP1, 5-100 μM for etoposide
Method: γ-H2AXDNA damage assay. Colon cancer cell lines HT29 and SW620 were plated to black clear bottom 96 well plates at 20,000 cells/well in 100 μL of phenol red free medium. […] Cells were fixed with 4% paraformaldehyde at room temp for 20 min, washed 3 times with 400 μL/well of PBS, permeabilized and blocked with 100 μL of 3% BSA and 0.1% IGEPAL in PBS for 20 min. Cells were then incubated in γ-H2AX primary antibody (Cell Signaling, 1:400 dilution) at 4° C. overnight, washed 4 times with PBS, and incubated with FITC conjugated anti-rabbit secondary antibody (Cell Signaling, 1:200 dilution) at room temp for 1 hour, and washed 4 times with PBS. Cells were stained with 10 μM of Hoechst 33342 at room temp for 10 min, washed 4 times with PBS before imaged with a 20× objective using PerkinElmer Operetta imager.

[2] = Homo sapiens, SW-620, Table 2, 72 hours

Compound | IC50 (SW620 tumor organoids; Table 2, 72 hours) | IC50 (SW620 tumor organoids; [2]) | DNA double stranded breaks (γ-H2AX) [1] | further results
CC(=O)Nc1ccc(-c2ccnc3c(O)c(NC(C)=O)ccc23)cc1 [Analog 35] | > 30 µM |  |  | 
O=C(CCN1CCOCC1)Nc1ccc2c(-c3cc(F)ccc3O)ccnc2c1O [Analog 42] |  | > 30 µM |  | 
CC(=O)Nc1ccc2c(-c3cc(F)ccc3O)ccnc2c1O [Analog 7] |  | > 30 µM | do not damage DNA; also recorded: do not cause DNA DSBs | 
CC(=O)Nc1ccc2c(-c3ccoc3)ccnc2c1O [Analog 56] |  | > 30 µM |  | 
Cn1ccc2c(c1=O)C(=O)c1nccc3c1C2NC1=CCC=CC13 (centres unmarked) [neo, neoamphimedine, reference compound] |  |  | do not damage DNA | DNA double stranded breaks (γ-H2AX) ([1]; listed as Neo): do not cause DNA DSBs
CC(C)(C)C(=O)Nc1ccc2c(-c3ccccc3)ccnc2c1O [Analog 39] | > 30 µM |  |  | 
